Test results from patent US12269859B2, “Synthetic immune receptors and methods of use thereof” (Angeles Therapeutics, Inc., priority 2016, dated 2025).

Legend:
[1] = tested on: RAJI cells; assay: RAJI xenograft model of lymphoma in NSG mice (survival); assay type: in vivo
Protocol: In vivo efficacy of SIR targeting CD19. […] SIR constructs and Gluc-PAC-G07 control construct encoding non-secretory form of Guassia Luciferase. Approximately half the cells were selected with puromycin while the other half was expanded without puromycin selection. NSG mice (Jackson Lab) were sub-lethally irradiated at a dose of 175 cGy. Approximately 24 hours post irradiation (day 2), mice were injected with 2.5×10^4 RAJI cells via tail-vein. […] Control mice (n=5) received no T cells or uninfected T cells. Mice were given human IL2 (400 IU intraperitoneally) on alternate days till the death of all mice in control group.
Approximately half the cells were selected with puromycin while the other half was expanded without puromycin selection. NSG mice (Jackson Lab) were sub-lethally irradiated at a dose of 175 cGy. Approximately 24 hours post irradiation (day 2), mice were injected with 2.5×10^4 RAJI cells via tail-vein. […] Control mice (n=5) received no T cells or uninfected T cells. Mice were given human IL2 (400 IU intraperitoneally) on alternate days till the death of all mice in control group.
SIR construct. NSG mice (Jackson Lab) were sub-lethally irradiated at a dose of 175 cGy. Approximately 24 hours post irradiation (day 2), mice were injected with 2.5×10^4 RAJI cells via tail-vein. […] SIR encoding lentivirus. Control mice (n=5) were injected with 5 million uninfected T cells or given no T cells.
SIR constructs. […] SIR were included as controls. NSG mice (n=5) were sub-lethally irradiated at a dose of 175 cGy. 24 hours post irradiation (day 2), mice were injected with 2.5×10^4 RAJI cells via tail-vein. […] Mice were given human IL2 (400 IU i.p.) on alternate days till the death of all mice in control group.
Human peripheral blood T cells isolated using CD3 magnetic beads were infected with lentiviruses expressing the indicated SIR constructs targeting Lym1 and Lym2. On day 1, the NSG mice were sub-lethally irradiated at a dose of 175 cGy. 24 hours post irradiation (day 2), mice were injected with 25×10^3 Raji cells intravenously. On day 3, the mice were treated intravenously with 10 million indicated CAR-T cells. Beginning on day 4, mice were injected with human IL-2 i.p. at a dose of 400 IU/mice every alternate day after the injection CAR-T cells till the death of all mice in control group.

[2] = tested on: 293-Protein L-II cells; assay: Jurkat NFAT-GFP assay, coculture with 293-Protein L-II cells; assay type: cell-based, human; conditions: co-culture with 293-Protein L-II cells approximately 18 hours
From the text: Generation of human aAPC expressing Protein L on cell surface. Lentiviral chimeric antigen receptor (CAR) constructs were generated expressing different regions of Protein L in fusion with hinge and transmembrane regions of human CD8, 41BB costimulatory domain and CD3z chain. The nucleotide sequence of Protein L was codon optimized for optimal expression in human cells. It needs to be noted that the 41BB costimulatory domain and CD3z chain are not essential for the function of Protein L for the purpose of this invention. The vectors also carried N-terminal signal peptides derived from either human CD8 or IgH to allow cell surface transport of Protein L. The complete nucleic acid and amino acid sequence of the vectors are provided in SEQ ID NO: 888 and SEQ ID NO: 889.
Next, 293 cells were infected with a lentivirus vector encoding the Protein L-II construct (072716-K01) and polyclonal population of cells stably expressing Protein L were generated following selection with 750 ng/ml puromycin. […] SIR constructs. […] The use of Protein-L expressing aAPC is, however, not limited to above type of cells. These cells can serve as universal aAPC for any immune effector cell which carries an antigen binding domain derived from a suitable κ chain containing antibody that can bind to Protein L.

[3] = tested on: Protein L magnetic beads; assay: Jurkat NFAT-GFP assay, coculture with Protein L magnetic beads; assay type: cell-based, human; conditions: coculture with Protein L beads for 18 hours
From the text: Use of Protein L microbeads and Protein L expressing cells for stimulation of SIR and CAR expressing cells. A number of Human cell-based artificial antigen-presenting cells for cancer immunotherapy have been described. One approach for ex vivo expansion of CAR^+ and SIR^+ T cells involves the use of irradiated artificial antigen presenting cells (aAPC) expressing the targeted tumor associated antigen (TAA). However, this approach requires that the aAPC be engineered to express each individual TAA. To overcome this problem, a universal antigen presenting cell was developed. Protein L is an immunoglobulin (Ig) light chain-binding protein expressed by some strains of the anaerobic bacterial species Peptostreptococcus magnus. […] As an alternative to expressing individual TAAs on aAPC, experiments were performed to determine if Protein L could activate CAR^+ T and SIR^+ T cells independent of specificity. In the initial experiments, coculture of Jurkat-NFAT-GFP cells expressing different CAR and SIR constructs were tested to determine whether Protein L magnetic beads would lead to induction of GFP expression. Pierce Protein L magnetic beads (cat. #88849; concentration 10 mg/ml) were purchased from ThermoFisher and diluted 1:10 in PBS. Approximately 10 μl of diluted beads were added per well in a U-bottom 96-well plate. […] CAR were added to the wells and cocultured with the beads for 18 hours. […]

[4] = tested on: RAJI cells; assay: Jurkat NFAT-GFP assay, coculture with RAJI cells; assay type: cell-based, human; conditions: SIR/CAR-expressing Jurkat-NFAT-GFP cells cocultured with RAJI cells
Protocol: (B) Induction of NFAT promoter driven GFP expression. The control vector- and SIR-expressing Jurkat-NFAT-GFP cocultured for 4-24 hours with the target antigen-expressing cell line (described above) and their ability to bind to the target antigen is assayed by measuring induction of GFP expression using Flow Cytometry. Cellular supernatant is collected and assayed for the induction of cytokines (e.g., IL2).
Jurkat NFAT-GFP Assay For Synthetic Immune Receptors. The Jurkat-NFAT-GFP cells are engineered in such a way that the IL-2 promoter, which carries NFAT binding sites, is cloned upstream of the GFP gene. These cells have been used to study signaling via TCR and CAR. […]
Induction of GFP expression by coculturing of Jurkat-NFAT-GFP cells expressing different SIR constructs and the different target cells was studied essentially as described previously (Wu, Roybal, Puchner, Onuffer, & Lim, 2015). GFP expression was monitored by FACS analysis. […] The names of different SIRs, their SEQ ID NOs, component antigen binding domains and TCR chains can be determined by reference to Tables 7A-7H. […] The signs +/−, +, 2+ etc. after the name of the cell lines indicate the relative degree of positivity on the Jurkat-NFAT-GFP assay as measured by the % GFP positive cells after culture of the SIR expressing Jurkat-NFAT-GFP cells with that cell line.

Cc1sc2c(c1C)C(c1ccc(Cl)cc1)=N[C@@H](CC(=O)OC(C)(C)C)c1nnc(C)n1-2 [JQ1(+), reference compound]
persistence of SIR-T cells and survival vs vehicle (in words) ([1]; 50 mg/kg twice daily intra-peritoneal, mice receiving SEQ ID NO: 1200 SIR-T cells): longer persistence of SIR-T cells and survive longer

COc1ccc(-c2cc3c(C)nc(N)nc3n([C@H]3CC[C@H](OCCO)CC3)c2=O)cn1 [PF-04691502, reference compound]
median survival of mice given SIR-T cells expanded in presence vs absence of the inhibitor (in words) ([1]; SIR-T (SEQ ID NO:900) expanded with 0.10 μM to 0.5 μM): higher

CD8SP-FMC63(vL-vH)-Myc-BBz-T2A-PAC [SEQ ID NO:4501, reference compound]
induction of GFP expression (in words) [2]: strong induction of GFP expression | induction of GFP expression (in words) [3]: modest induction of GFP expression

pSBbi-puro-FMC63vL-V5-[TCRb-KACIAH]-F-P2A-FMC63vH-MYC-[TCRa-CSDVP]-F-F2A [SEQ ID NO:875]
induction of GFP expression / NFAT signaling (in words) [4]: showed GFP induction
